According to patent US11945822B2, “Pyrazolo-triazine and/or pyrazolo-pxrimidine derivatives as selective inhibitor of cyclin dependent kinase” (QURIENT CO., LTD., priority 2018, dated 2024):
pIC50: −log10 of the molar value.

Legend:
[1] = biological target: T1, CDK8/CycC (Homo sapiens, UniProt P49336); assay: In vitro IC50 profile for CDKs family kinase (33PanQinase radiometric assay); format: biochemical; conditions: CDK7 selectivity profile in CDKs family
T1 construct: purchased ProQinase GmbH
T1 sequence (P49336 whole entry): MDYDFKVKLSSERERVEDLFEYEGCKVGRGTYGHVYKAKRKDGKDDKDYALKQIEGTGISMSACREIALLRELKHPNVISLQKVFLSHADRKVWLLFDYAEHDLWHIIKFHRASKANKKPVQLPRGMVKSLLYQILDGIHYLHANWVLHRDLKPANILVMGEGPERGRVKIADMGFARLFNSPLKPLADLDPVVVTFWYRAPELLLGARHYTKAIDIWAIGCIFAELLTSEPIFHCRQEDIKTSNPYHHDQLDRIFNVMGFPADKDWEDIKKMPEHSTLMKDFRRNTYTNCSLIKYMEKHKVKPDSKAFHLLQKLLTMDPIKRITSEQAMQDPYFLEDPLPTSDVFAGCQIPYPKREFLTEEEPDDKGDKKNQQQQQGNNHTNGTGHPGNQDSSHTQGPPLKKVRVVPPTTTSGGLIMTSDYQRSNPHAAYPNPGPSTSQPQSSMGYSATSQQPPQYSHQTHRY
T1 sequence (P24863 whole entry partner): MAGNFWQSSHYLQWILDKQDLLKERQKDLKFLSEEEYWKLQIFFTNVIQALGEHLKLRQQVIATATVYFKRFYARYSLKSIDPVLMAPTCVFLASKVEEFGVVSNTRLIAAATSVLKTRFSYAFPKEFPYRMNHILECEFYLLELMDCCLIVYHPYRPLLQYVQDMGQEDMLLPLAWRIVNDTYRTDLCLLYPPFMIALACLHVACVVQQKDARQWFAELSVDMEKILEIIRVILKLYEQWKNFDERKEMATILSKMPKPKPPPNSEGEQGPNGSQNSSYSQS
Method: (§1) In Vitro IC50 Profile for CDK7 Inhibitor Among 28 CDKs Family Kinases.
(§2) The IC50 profile of compounds were determined using 28 CDKs family protein kinases through ProQinase GmbH (Freiburg, Germany). All the protocol and materials had been provided by ProQinase GmbH. Briefly, in the process, 90 μl H2O were added to each well of a compound dilution plate. To minimize potential precipitation, the H2O was added to the plate only a few minutes before the transfer of the compound solutions into the assay plates. The plate was shaken thoroughly, resulting in a “compound dilution plate/10% DMSO”. The compound dilution plate(s) were discarded at the end of the working day. For the assays (see below), 5 μl solution from each well of the compound dilution plate were transferred into the assay plates. The final volume of the assay was 50 μl. All compounds were tested at 10 final assay concentrations in the range from 1×10^−05 M to 3×10^−10 M. The final DMSO concentration in the reaction cocktails was 1% in all cases. All protein kinases provided by ProQinase were expressed in Sf9 insect cells or in E. coli as recombinant GST-fusion proteins or His-tagged proteins, either as full-length or enzymatically active fragments. All kinases were produced from human cDNAs and purified by either GSH affinity chromatography or immobilized metal affinity chromatography. The purity of the protein kinases was examined by SDS-PAGE/Coomassie staining, the identity was checked by mass spectroscopy. Kinases from external vendors, Carna Biosciences Inc.; Invitrogen Corp.; and Millipore Corp., were expressed, purified and quality-controlled by virtue of the vendors readings. A radiometric protein kinase assay (^33PanQinase® Activity Assay) was used for measuring the kinase activity of the 28 protein kinases. All kinase assays were performed in 96-well FlashPlates™ from PerkinElmer (Boston, MA, USA) in a 50 μl reaction volume. The reaction cocktails were incubated at 30° C. for 60 minutes. The reaction was stopped with 50 μl of 2% (v/v) H3PO4, plates were aspirated and washed two times with 200 μl 0.9% (w/v) NaCl. Incorporation of ^33Pi was determined with a microplate scintillation counter (Microbeta, Wallac). All assays were performed with a BeckmanCoulter/SAGIAN™ Core System. As part of the data evaluation the low control value from a particular plate was subtracted from the high control value as well as from all 80 “compound values” of the corresponding plate. The residual activity (in %) for each well of a particular plate was calculated by using the following formula: Res. Activity (%)=100×[(cpm of compound−low control)/(high control−low control)]. Results are represented in table (table 10).

[2] = biological target: T2, CDK19/CycC (Homo sapiens, UniProt Q9BWU1); assay: as above; format: biochemical; conditions: CDK7 selectivity profile in CDKs family
T2 construct: either as full-length or enzymatically active fragments; purchased ProQinase GmbH (Freiburg, Germany)
T2 sequence (Q9BWU1 whole entry, the tested form may be a part): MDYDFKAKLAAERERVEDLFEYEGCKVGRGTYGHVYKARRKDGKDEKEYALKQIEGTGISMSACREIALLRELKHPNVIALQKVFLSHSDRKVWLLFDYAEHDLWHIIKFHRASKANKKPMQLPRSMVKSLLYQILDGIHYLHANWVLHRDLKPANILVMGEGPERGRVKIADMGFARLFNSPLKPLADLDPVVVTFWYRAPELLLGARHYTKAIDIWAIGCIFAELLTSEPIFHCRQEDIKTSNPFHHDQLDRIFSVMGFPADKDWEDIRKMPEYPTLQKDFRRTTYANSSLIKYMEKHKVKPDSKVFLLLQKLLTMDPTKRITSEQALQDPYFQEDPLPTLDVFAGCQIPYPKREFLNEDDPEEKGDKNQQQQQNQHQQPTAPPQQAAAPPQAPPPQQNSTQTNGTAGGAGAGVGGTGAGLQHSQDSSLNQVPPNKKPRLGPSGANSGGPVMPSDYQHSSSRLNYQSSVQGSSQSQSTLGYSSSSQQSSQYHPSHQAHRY
T2 sequence (P24863 whole entry partner, the tested form may be a part): as the sequence (P24863 whole entry partner) above
Method: as §1, §2

[3] = biological target: T3, CDK2/CycA2 (Homo sapiens, UniProt P24941); assay: as above; format: biochemical; conditions: CDK7 selectivity profile in CDKs family
T3 construct: purchased ProQinase GmbH
Method: as §1, §2

[4] = biological target: T4, CDK6/CycD2 (Homo sapiens, UniProt Q00534); assay: as above; format: biochemical; conditions: CDK7 selectivity profile in CDKs family
T4 construct: purchased ProQinase GmbH
T4 sequence (Q00534 whole entry): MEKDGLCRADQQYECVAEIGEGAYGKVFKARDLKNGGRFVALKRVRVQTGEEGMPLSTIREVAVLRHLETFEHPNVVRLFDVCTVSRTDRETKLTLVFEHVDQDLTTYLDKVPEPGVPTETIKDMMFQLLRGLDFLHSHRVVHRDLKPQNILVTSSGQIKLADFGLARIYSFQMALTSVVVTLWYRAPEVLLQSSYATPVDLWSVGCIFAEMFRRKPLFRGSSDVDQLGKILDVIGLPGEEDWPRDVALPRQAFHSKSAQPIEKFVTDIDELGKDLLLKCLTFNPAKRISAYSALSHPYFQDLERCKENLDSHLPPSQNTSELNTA
T4 sequence (P30279 whole entry partner): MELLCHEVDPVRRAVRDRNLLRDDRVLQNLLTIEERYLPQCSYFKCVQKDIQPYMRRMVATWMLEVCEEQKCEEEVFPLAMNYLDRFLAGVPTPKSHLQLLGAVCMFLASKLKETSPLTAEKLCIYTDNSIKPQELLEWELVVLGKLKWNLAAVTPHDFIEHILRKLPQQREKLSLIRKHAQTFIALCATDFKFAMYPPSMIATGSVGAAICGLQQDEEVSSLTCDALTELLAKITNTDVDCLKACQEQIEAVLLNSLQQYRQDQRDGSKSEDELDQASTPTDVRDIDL
Method: as §1, §2

[5] = biological target: T5, CDK1/CycB1 (Homo sapiens, UniProt P06493); assay: as above; format: biochemical; conditions: CDK7 selectivity profile in CDKs family
T5 construct: purchased ProQinase GmbH
T5 sequence (P06493 whole entry): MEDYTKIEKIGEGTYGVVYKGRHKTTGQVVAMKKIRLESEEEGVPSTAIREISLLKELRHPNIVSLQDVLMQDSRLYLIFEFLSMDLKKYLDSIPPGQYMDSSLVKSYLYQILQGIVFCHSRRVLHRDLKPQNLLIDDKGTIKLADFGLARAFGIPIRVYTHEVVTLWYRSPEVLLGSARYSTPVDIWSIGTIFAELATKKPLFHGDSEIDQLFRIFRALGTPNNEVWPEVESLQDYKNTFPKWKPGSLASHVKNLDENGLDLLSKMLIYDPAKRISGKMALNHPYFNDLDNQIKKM
T5 sequence (P14635 whole entry partner): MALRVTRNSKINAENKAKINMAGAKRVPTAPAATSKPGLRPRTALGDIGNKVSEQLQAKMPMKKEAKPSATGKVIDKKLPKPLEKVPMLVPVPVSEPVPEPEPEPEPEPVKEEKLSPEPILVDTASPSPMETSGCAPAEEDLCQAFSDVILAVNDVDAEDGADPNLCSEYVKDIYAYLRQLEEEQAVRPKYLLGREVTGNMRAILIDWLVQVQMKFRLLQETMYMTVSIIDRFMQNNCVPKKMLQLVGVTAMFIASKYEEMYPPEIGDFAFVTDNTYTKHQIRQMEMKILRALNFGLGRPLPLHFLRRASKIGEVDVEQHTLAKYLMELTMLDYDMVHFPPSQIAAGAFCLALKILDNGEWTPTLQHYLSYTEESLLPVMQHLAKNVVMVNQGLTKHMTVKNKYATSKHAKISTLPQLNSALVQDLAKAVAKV
Method: as §1, §2

[6] = biological target: T6, CDK7/CycH/MAT1 (Homo sapiens, UniProt P50613); assay: as above; format: biochemical; conditions: CDK7 selectivity profile in CDKs family
T6 construct: purchased ProQinase GmbH
T6 sequence (P50613 whole entry): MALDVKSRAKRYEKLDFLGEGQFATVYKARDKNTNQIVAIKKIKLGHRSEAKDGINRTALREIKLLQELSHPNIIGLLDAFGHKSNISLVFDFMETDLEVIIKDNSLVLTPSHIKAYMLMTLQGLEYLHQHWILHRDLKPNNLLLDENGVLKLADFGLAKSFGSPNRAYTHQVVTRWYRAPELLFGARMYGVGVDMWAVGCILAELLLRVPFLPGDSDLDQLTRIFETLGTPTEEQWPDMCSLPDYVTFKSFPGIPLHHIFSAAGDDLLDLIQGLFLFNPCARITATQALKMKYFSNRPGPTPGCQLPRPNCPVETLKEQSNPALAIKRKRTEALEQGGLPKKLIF
T6 sequence (P51946 whole entry partner): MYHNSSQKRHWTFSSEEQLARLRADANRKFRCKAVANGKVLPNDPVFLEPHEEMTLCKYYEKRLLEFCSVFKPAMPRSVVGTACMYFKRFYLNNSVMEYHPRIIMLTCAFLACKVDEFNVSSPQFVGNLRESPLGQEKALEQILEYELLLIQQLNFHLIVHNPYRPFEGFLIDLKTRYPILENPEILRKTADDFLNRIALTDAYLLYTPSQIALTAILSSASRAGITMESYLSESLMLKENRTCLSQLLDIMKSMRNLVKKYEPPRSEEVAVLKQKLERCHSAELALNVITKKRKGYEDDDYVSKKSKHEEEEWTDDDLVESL
T6 sequence (P51948 whole entry partner): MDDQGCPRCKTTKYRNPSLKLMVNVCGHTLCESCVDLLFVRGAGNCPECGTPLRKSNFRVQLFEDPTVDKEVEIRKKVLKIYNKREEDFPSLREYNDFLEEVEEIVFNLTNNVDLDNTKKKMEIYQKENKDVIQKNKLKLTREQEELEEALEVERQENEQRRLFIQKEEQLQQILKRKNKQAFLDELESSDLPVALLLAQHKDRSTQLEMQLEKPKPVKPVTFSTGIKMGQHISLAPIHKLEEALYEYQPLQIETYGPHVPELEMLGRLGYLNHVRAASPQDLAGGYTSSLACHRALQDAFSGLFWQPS
Method: as §1, §2

[7] = biological target: T7, CDK4/CycD3 (Homo sapiens, UniProt P11802); assay: as above; format: biochemical; conditions: CDK7 selectivity profile in CDKs family
T7 construct: purchased ProQinase GmbH
T7 sequence (P11802 whole entry): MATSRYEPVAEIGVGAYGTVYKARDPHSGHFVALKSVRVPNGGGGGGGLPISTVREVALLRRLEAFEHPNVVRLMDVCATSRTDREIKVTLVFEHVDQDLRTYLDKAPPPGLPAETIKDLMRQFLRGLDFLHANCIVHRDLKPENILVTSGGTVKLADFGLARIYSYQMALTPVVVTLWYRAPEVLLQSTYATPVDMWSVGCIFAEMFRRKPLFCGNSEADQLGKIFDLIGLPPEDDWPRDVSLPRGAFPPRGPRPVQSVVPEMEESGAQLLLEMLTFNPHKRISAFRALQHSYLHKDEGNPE
T7 sequence (P30281 whole entry partner): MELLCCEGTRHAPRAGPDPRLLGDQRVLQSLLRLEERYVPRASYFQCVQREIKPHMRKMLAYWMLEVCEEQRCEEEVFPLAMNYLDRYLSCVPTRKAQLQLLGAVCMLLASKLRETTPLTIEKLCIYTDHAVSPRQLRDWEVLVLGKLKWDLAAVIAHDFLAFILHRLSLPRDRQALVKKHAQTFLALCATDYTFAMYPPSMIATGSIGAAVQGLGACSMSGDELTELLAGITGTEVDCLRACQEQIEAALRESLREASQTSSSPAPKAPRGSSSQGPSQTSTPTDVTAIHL
Method: as §1, §2

[8] = biological target: T8, CDK3/CycC (Homo sapiens, UniProt Q00526); assay: as above; format: biochemical; conditions: CDK7 selectivity profile in CDKs family
T8 construct: purchased ProQinase GmbH
T8 sequence (Q00526 whole entry): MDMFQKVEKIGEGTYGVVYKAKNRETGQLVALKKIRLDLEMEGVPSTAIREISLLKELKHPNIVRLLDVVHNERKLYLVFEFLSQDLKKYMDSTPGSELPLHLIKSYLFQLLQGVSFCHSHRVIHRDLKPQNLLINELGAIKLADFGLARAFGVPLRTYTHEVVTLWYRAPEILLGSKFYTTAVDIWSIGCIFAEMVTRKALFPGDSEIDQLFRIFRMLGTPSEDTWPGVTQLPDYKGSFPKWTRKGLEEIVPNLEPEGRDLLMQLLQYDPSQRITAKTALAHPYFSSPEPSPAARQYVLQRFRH
T8 sequence (P24863 whole entry partner): as the sequence (P24863 whole entry partner) above
Method: as §1, §2

[9] = biological target: T9, CDK4/CycD2 (Homo sapiens, UniProt P11802); assay: as above; format: biochemical; conditions: CDK7 selectivity profile in CDKs family
T9 construct: purchased ProQinase GmbH
T9 sequence (P11802 whole entry): as the sequence (P11802 whole entry) above
T9 sequence (P30279 whole entry partner): as the sequence (P30279 whole entry partner) above
Method: as §1, §2

[10] = tested on: MV4-11; assay: Cellular MV4-11 viability assay (CellTiter-Glo, 72 hours); format: cell-based; conditions: Homo sapiens
Method in brief: (§3)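 Mycoplasma-tested cells, seeded at densities chosen for each line, received compound or DMSO vehicle (under 0.1% final) for 72 hours. Duplicate cultures were then read for viability by CellTiter-Glo luminescence.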

[11] = tested on: HCT116; assay: Cellular HCT116 viability assay (CellTiter-Glo, 72 hours); format: cell-based; conditions: Homo sapiens, HCT-116
Method in brief: as §3

[12] = tested on: A2780; assay: Cellular A2780 viability assay (CellTiter-Glo, 72 hours); format: cell-based; conditions: Homo sapiens
Method in brief: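 Compound exposure lasted 72 h at 37° C, 5% CO2, over 0.0015–10 uM, DMSO kept under 0.1%, with dosing 24 h after seeding. Seeding: A2780 1×10^3, OVCAR-3 5×10^3, MM.1S 1×10^4 cells/well in 10% FBS RPMI-1640. Duplicate CellTiter-Glo luminescence readout.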

Compound: CC(C)c1cnn2c(NCc3c(Cl)cccc3-n3ccc(C(C)(C)O)n3)nc(N3CCC(N)CC3)nc12 [Compound 210]
- pIC50 [1]: < 5.00
- pIC50 [2]: < 5.00
- pIC50 [3]: 5.44
- pIC50 [4]: < 5.00
- pIC50 [5]: < 5.00
- pIC50 [6]: 7.82
- pIC50 [7]: < 5.00
- pIC50 [8]: < 5.00
- pIC50 [9]: < 5.00
- pIC50 [10]: > 6.00
- pIC50 [11]: > 6.00
- pIC50 [12]: ≥ 6.00
